Holding throughout (format): functional
Test [1] deals with Bacillus subtilis. Description: Antibacterial activity against Bacillus subtilis 1046 in presence of 5 mM Ca2+.
Test [2] deals with Bacillus subtilis. In words: Antibacterial activity against Bacillus subtilis 1046 in presence of 100 mM Ca2+.
Test [3] relates to Bacillus subtilis. In words: Antibacterial activity against Bacillus subtilis 1046 in presence of 1.8 mM Ca2+.

Bounds are passed on as bounds.

In general, MIC refers to the lowest concentration that inhibits growth of the organism. As to `CCCCCCCCCC(=O)N[C@@H](Cc1c[nH]c2ccccc12)C(=O)N[C@@H](CC(N)=O)C(=O)N[C@@H](CC(=O)O)C(=O)N[C@H]1COC(=O)[C@H](Cc2ccc(O)cc2)NC(=O)[C@H](CCC(=O)O)NC(=O)[C@@H](CO)NC(=O)CNC(=O)[C@H](CC(=O)O)NC(=O)[C@@H](C)NC(=O)[C@H](CC(=O)O)NC(=O)[C@H](CCCN)NC(=O)CNC1=O`, the MIC with Bacillus subtilis [1] worked out at 35 µg/mL; in the test on Bacillus subtilis [2], 1.3 µg/mL.
As for `CCCCCCCCCC(=O)N[C@@H](Cc1c[nH]c2ccccc12)C(=O)N[C@@H](CC(N)=O)C(=O)N[C@@H](CC(=O)O)C(=O)N[C@H]1COC(=O)[C@H](Cc2c[nH]c3ccccc23)NC(=O)[C@H](CCC(=O)O)NC(=O)[C@@H](CO)NC(=O)CNC(=O)[C@H](CC(=O)O)NC(=O)[C@@H](C)NC(=O)[C@H](C)NC(=O)[C@H](CCCN)NC(=O)CNC1=O`, the MIC with Bacillus subtilis [3], with Bacillus subtilis [1] and with Bacillus subtilis [2] was above 100 µg/mL each time.
On to `CCCCCCCCCC(=O)N[C@@H](Cc1c[nH]c2ccccc12)C(=O)N[C@@H](CC(N)=O)C(=O)N[C@@H](CC(=O)O)C(=O)N[C@H]1COC(=O)[C@H](Cc2c[nH]c3ccccc23)NC(=O)[C@H](CCC(=O)O)NC(=O)[C@@H](CO)NC(=O)CNC(=O)[C@H](CC(=O)O)NC(=O)[C@@H](C)NC(=O)[C@H](CC(=O)O)NC(=O)[C@H](CCCN)NC(=O)CNC1=O`, for which the MIC with Bacillus subtilis [3] came out at 5 µg/mL; with Bacillus subtilis [1], 1.5 µg/mL; in the test on Bacillus subtilis [2], 1.5 µg/mL.
Regarding `CCCCCCCCCC(=O)N[C@@H](Cc1c[nH]c2ccccc12)C(=O)NC(CC(N)=O)C(=O)N[C@@H](CC(=O)O)C(=O)N[C@@H]1C(=O)NCC(=O)N[C@@H](CCCN)C(=O)N[C@@H](CC(=O)O)C(=O)N[C@H](C)C(=O)N[C@@H](CC(=O)O)C(=O)NCC(=O)N[C@H](CO)C(=O)N[C@@H](C(C)CC(=O)O)C(=O)N[C@@H](CC(=O)c2ccccc2N)C(=O)O[C@@H]1C` (single isomer, unassigned) [DAPTOMYCIN], the MIC with Bacillus subtilis [3] was 40 µg/mL; in the test with Bacillus subtilis [1], 5 µg/mL; with Bacillus subtilis [2] it was 5 µg/mL.
As for `CCCCCCCCCC(=O)N[C@@H](Cc1c[nH]c2ccccc12)C(=O)N[C@H](CC(N)=O)C(=O)N[C@@H](CC(=O)O)C(=O)N[C@@H]1C(=O)NCC(=O)N[C@@H](CCCN)C(=O)N[C@@H](CC(=O)O)C(=O)N[C@H](C)C(=O)N[C@@H](CC(=O)O)C(=O)NCC(=O)N[C@H](CO)C(=O)N[C@@H]([C@H](C)CC(=O)O)C(=O)N[C@@H](CC(=O)c2ccccc2N)C(=O)O[C@@H]1C`, the figures for the MIC in the test with Bacillus subtilis [3], in the test with Bacillus subtilis [1] and in the test with Bacillus subtilis [2] were 1 µg/mL, 0.75 µg/mL and 0.5 µg/mL, respectively.
